Test results from article PMC4772543, “Immune responses to Mycobacterial heat shock protein 70 accompany self-reactivity to human BiP in rheumatoid arthritis” (Scientific Reports, 2016).

Tests used:
[1] = tested on: collagen-induced arthritis in DBA/1 J mice; assay: Oral administration of peptide in collagen-induced arthritis (CIA); format: in vivo, mouse
Procedure: Figure 6 Oral tolerance of MycHSP70_287–306 peptides in a collagen-induced arthritis model. (A,B) The MycHSP70_287–306 peptide or control (PBS alone) was orally administered to bovine type II collagen-immunized DBA/1 J mice after the occurrence of CIA for 5 continuous days (n = 12). Mice were sacrificed on day 35. Arthritis scores were measured by finger and paw swelling, and histological scores were measured by cell infiltration (C), pannus formation (P), and bone destruction (B). (C) Splenic CD4^+ T cell proliferation from CIA-induced DBA/1 J mice in response to a recall antigen (Ag) stimulation (MycHSP70_287–306 and BiP336–355 epitopes, and heat-denatured bovine type II collagen (BC II)). Proliferation was determined by[3]-H thymidine incorporation. (D) Serum anti-BiP and anti-BC II antibody titers were measured by ELISA. (E,F) Mouse IL-10 and TGF-beta1 concentrations in the splenic CD4^+ T cell culture were measured by ELISA. Data were representative of at least three independent trials. *p < 0.05, **p < 0.01, ***p < 0.001.
Serum antibodies were measured by ELISA as previously reported. Briefly, 96-well plates (Thermo Fisher Scientific) were coated with 5 μg/mL of each antigen and dissolved in 0.1 M NaHCO3. Diluted samples (100x) were applied, followed by goat anti-human IgG-horseradish peroxidase (HRP) (5000:1,Vector) or goat anti-mouse IgG-HRP (5000:1, Life Technologies) detection antibodies and TMB solution (KPL) for development.
CIA in the background of DBA/1 J female mice (SLC Japan) was performed and arthritis scores were acquired as previously described. In the therapeutic experiments, mice were administered 200 μg of MycHSP287–306 peptides orally for 5 continuous days following the onset of arthritis. Mice were sacrificed on day 35, and the CD4^+ T cell culture was performed as described above. Mouse cytokine concentrations in the supernatants were measured using a mouse IL-10 ELISA kit and mouse/human TGF-beta 1 ELISA kit (eBioscience) according to the manufacturer’s protocol. Tissue samples were embedded in paraffin wax after 10% formaldehyde fixation and decalcification. Sections were stained with hematoxylin and eosin. Synovial tissues were graded by mononuclear cell infiltration, pannus formation, and cartilage erosion, as described previously. All animal experiments were conducted in accordance with Institutional and National Guidelines, and the protocols were approved by the Ethical Committee on Animal Experiments of the University of Tokyo. […]
Oral tolerance of MycHSP70287-306 peptides on collagen-induced arthritis (CIA) model. The experimental protocol was the same as Figure 6.
(A)(B)Mouse IL-17 and IFN-gamma concentrations in the splenic CD4+ T cell culture was measured by ELISA (Mouse cytokine ELISA ready-set-go, eBioscience) according to the manufacture’s protocol. (C) The frequencies of splenic regulatory T cells in CIA (n=4, each). FACS analysis was performed by FACS Vantage (BD Bioscience). Cells were stained by anti-mouse CD4
APC antibody, anti-mouse CD25 FITC antibody, FOXP3 staining was performed using anti-mouse Foxp3 PE antibody (eBioscience) by using […]

[2] = molecular target: T1, HLA-DRB1*0401 (Homo sapiens, UniProt P01903+P01911, A100K/A169T/F76Y/I96L/K127E/L162R/M171V/N62H/P40V/Q125Y/R42H/S133A/S149N/S66Y/V115G/V209L/W38E); assay: HLA-DR4 peptide binding assay (competition with labelled HA peptide); conditions: inhibition of labelled HA peptide (0.5 nM) binding to 40 nM purified DR4, 37 °C, 4 h
T1 construct: Soluble DR4 molecules in the supernatant were collected and purified; made in house; host or cells: Drosophila S2 cells
Text: (§1) Figure 4 HLA-DR4 binding assay. (A) Binding activities between a HLA-DRB1*0401 and 0405 molecule and MycHSP70_287–306. Binding activities were estimated by the inhibition of peroxidase-labeled HA307–318 peptide binding to a HLA-DRB1 molecule. (B) Binding of MycHSP70_287–306 with alanine-substituted peptides to HLA-DRB1*0405 molecules. A MycHSP70_287–306-derived peptide in which an amino residue was substituted by an alanine residue. Inhibitory concentration 50% (IC50) was used as a measure of binding activity. *p < 0.05, **p < 0.01, ***p < 0.001.
(§2) The procedure to assess peptide binding to HLA-DRB1*0401 and 0405 was described in a previous study. In brief, HLA-DRA1B1*0401 and 0405 was cloned and transfected into S2 Drosophila cells. Soluble DR4 molecules in the supernatant were collected and purified through an affinity column coupled with the anti-DR antibody LB3.1. In the peptide binding assay, a 40 nM solution of purified DR4 was incubated at 37 °C for 4 h with the HA307–319 peptide (0.5 nM), which had been labeled at the N terminus with biotin. The indicated concentrations of the peptides were added as competitors to HA peptide binding. […] Bound biotinylated peptides were detected by an incubation with streptavidin-alkaline phosphatase. An automatic microplate reader (Bio-rad 550, Bio-rad) was used to measure optical density.

[3] = molecular target: T2, HLA-DRB1*0405 (Homo sapiens, UniProt P01903+P01911, A100R/A169T/D86S/F76Y/I96L/K127E/L162R/M171V/N62H/P40V/Q125Y/R42H/S133A/S149N/S66Y/V115G/V209L/W38E); assay: as above; conditions: inhibition of labelled HA peptide (0.5 nM) binding to 40 nM purified DR4, 37 °C, 4 h
T2 construct: Soluble DR4 molecules in the supernatant were collected and purified; made in house; host or cells: Drosophila S2 cells
Text: as §1, §2

[4] = CIA mice given peptide orally vs PBS, ELISA

Sequence: DRTRKPFQSVIADTGISVSE [MycHSP70_287–306]
- development of arthritis (arthritis scores) ([1]; 200 μg peptide orally for 5 continuous days after onset of arthritis, vs PBS, n = 12, sacrificed day 35): significantly improved
- histological scores ([1]; 200 μg peptide orally for 5 continuous days, cell infiltration, pannus formation, bone destruction, day 35): significantly improved
- serum anti-BC II antibody titers [1, 4]: significantly decreased
- serum anti-BiP antibody titers [1, 4]: significantly decreased
- frequency of CD4+ CD25+ Foxp3+ regulatory T cells ([1]; splenic, CIA mice given peptide orally vs PBS, n=4 each, FACS): increased
- binding to HLA-DRB1*0401 molecule [2]: bound
- binding to HLA-DRB1*0405 molecule [3]: bound
